Each compound was assayed against T1, Plk1 (Homo sapiens, UniProt P53350) (assay: biochemical). Details: not given.
T1 sequence (P53350 20-338): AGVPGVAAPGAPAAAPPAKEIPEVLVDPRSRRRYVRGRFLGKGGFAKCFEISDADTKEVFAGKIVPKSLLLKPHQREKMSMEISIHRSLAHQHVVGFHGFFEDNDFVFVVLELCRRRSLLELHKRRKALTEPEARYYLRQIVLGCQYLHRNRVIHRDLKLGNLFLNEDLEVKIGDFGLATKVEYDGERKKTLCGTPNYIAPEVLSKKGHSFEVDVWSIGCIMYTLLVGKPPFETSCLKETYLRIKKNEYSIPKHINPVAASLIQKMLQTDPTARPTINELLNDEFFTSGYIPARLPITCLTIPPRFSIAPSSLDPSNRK
Compound `CNC(=O)c1ccc(Nc2ncc3c(n2)N(Cc2ccccc2)CC(C)(C)C(=O)N3C)c(OC)c1` [Compound I-122, 4-(9-benzyl-6,7,8,9-tetrahydro-5,7,7-trimethyl-6-oxo-5H-pyrimido[4,5-b][1,4]diazepin-2-ylamino)-3-methoxy-N-methylbenzamide] has a Ki of 10 to 100 nM.
With `COc1cc(C(=O)NC2CCOCC2)ccc1Nc1ncc2c(n1)N(C1CCCC1)C[C@@H](C)C(=O)N2C` [Compound I-182, (R)-4-(9-cyclopentyl-5,7-dimethyl-6-oxo-6,7,8,9-tetrahydro-5H-pyrimido[4,5-b][1,4]diazepin-2-ylamino)-3-methoxy-N-(tetrahydro-2H-pyran-4-yl)benzamide] the Ki was under 10 nM.
`COc1cc(C(=O)NC2CCN(CCF)CC2)ccc1Nc1ncc2c(n1)N(C1CCCC1)CC(C)(C)C(=O)N2C` [Compound I-77, 4-(-9-cyclopentyl-6,7,8,9-tetrahydro-5,7,7-trimethyl-6-oxo-5H-pyrimido[4,5-b][1,4]diazepin-2-ylamino)-N-(1-(2-fluoroethyl)piperidin-4-yl)-3-methoxybenzamide] showed a Ki of under 10 nM.
`CNC(=O)c1ccc(Nc2ncc3c(n2)N(CC2CC2)CC(C)(C)C(=O)N3C)c(OC)c1` [Compound I-58, 4-(9-(cyclopropylmethyl)-6,7,8,9-tetrahydro-5,7,7-trimethyl-6-oxo-5H-pyrimido[4,5-b][1,4]diazepin-2-ylamino)-3-methoxy-N-methylbenzamide] showed a Ki of under 10 nM.
With `CCN1CCC(NC(=O)c2ccc(Nc3ncc4c(n3)N(C3CCCC3)CC(C)(C)C(=O)N4C)c(OC)c2)CC1` [Compound I-72] the Ki was under 10 nM.
Compound `COc1cc(C(=O)NC[C@H](O)CO)ccc1Nc1ncc2c(n1)N(C1CCCC1)CC(C)(C)C(=O)N2C` [Compound I-242, (S)-4-(9-cyclopentyl-5,7,7-trimethyl-6-oxo-6,7,8,9-tetrahydro-5H-pyrimido[4,5-b][1,4]diazepin-2-ylamino)-N-(2,3-dihydroxypropyl)-3-methoxybenzamide] has a Ki of under 10 nM.
Compound `COc1cc(C(=O)O)ccc1Nc1ncc2c(n1)N(C1CCCC1)CC(C)C(=O)N2C` (stereo not drawn) [Compound I-10, 4-(9-cyclopentyl-6,7,8,9-tetrahydro-5,7-dimethyl-6-oxo-5H-pyrimido[4,5-b][1,4]diazepin-2-ylamino)-3-methoxybenzoic acid] has a Ki of 10 to 100 nM.
`COc1cc(C(=O)N[C@@H]2CC[C@@H](O)C2)ccc1Nc1ncc2c(n1)N(C1CCCC1)CC1(CC1)C(=O)N2C` [Compound I-282, 4-(9′-cyclopentyl-5′-methyl-6′-oxo-5′,6′,8′,9′-tetrahydrospiro[cyclopropane-1,7′-pyrimido[4,5-b][1,4]diazepine]-2′-ylamino)-N-((1R,3R)-3-hydroxycyclopentyl)-3-methoxybenzamide] showed a Ki of under 10 nM.

The compounds below were run against T1, Plk1 (assay: Plk1 inhibition assay (radioactive-phosphate incorporation)). Details: Plk1 radioactive incorporation assay conditions.
`CNC(=O)c1ccc(Nc2ncc3c(n2)N(C2CCCC2)CC(C)(C)C(=O)N3C)c(OC(F)(F)F)c1` [Compound I-142, 4-(9-Cyclopentyl-6,7,8,9-tetrahydro-5,7,7-trimethyl-6-oxo-5H-pyrimido[4,5-b][1,4]diazepin-2-ylamino)-N-methyl-3-(trifluoromethoxy)benzamide] was tested, and the “solubility under the Plk1 assay conditions” value was “not soluble under the assay conditions”.
For `CNC(=O)c1ccc(Nc2ncc3c(n2)N(C2CCCC2)CC(C)(C)C(=O)N3C)nc1` [Compound I-126, 6-(9-cyclopentyl-6,7,8,9-tetrahydro-5,7,7-trimethyl-6-oxo-5H-pyrimido[4,5-b][1,4]diazepin-2-ylamino)-N-methylpyridine-3-carboxamide], the “solubility under the Plk1 assay conditions” value was “not soluble under the assay conditions”.

Same assay, conditions: test compound typically starting from 10 μM
For `COc1cc(C(=O)O)ccc1Oc1ncc2c(n1)N(C1CCCC1)CC(C)(C)C(=O)N2C` [Compound I-107, 4-(9-cyclopentyl-6,7,8,9-tetrahydro-5,7,7-trimethyl-6-oxo-5H-pyrimido[4,5-b][1,4]diazepin-2-yloxy)-3-methoxybenzoic acid], the “activity in the Plk1 radioactive incorporation assay (in words)” value was “not active within the limits of the assay”.
`CCOC(=O)N1CCC(Nc2ncc3c(n2)N(C2CCCC2)CCC(=O)N3C)CC1` [Compound I-13, Ethyl 4-(9-cyclopentyl-6,7,8,9-tetrahydro-5-methyl-6-oxo-5H-pyrimido[4,5-b][1,4]diazepin-2-ylamino)piperidin-1-carboxylate] was tested, and the “activity in the Plk1 radioactive incorporation assay (in words)” value was “not active within the limits of the assay”.
